Measured values: ChEMBL document CHEMBL4229325, “Angiogenesis and cancer stem cells: New perspectives on therapy of ovarian cancer” (Eur J Med Chem, 2017)
pIC50: −log10 of the molar value.

Tests used:
2008 [1] = assay: Cytotoxicity against human OV2008 cells assessed as reduction in cell viability incubated for 24 hrs by MTT assay; assay type: functional, cell-based; details: Homo sapiens, 2008, 24 h
C13 = assay: Antitumor activity against human C13 cells xenografted in mouse assessed as tumor volume at 5 mg/kg, ip dosed every other day for 3 weeks and measured every two days (reference value: 252.5 +/- 63.4 mm3); assay type: functional
[2] = Cytotoxicity against human A2780/DX cells assessed as cell viability at 8 uM incubated for 72 hrs by MTT assay; assay type: functional; details: read-out: Activity
2008 [3] = assay: Cytotoxicity against human OV2008 cells assessed as reduction in cell viability incubated for 72 hrs by MTT assay; assay type: functional, cell-based; details: Homo sapiens, 2008, 72 h
NCI/ADR-RES [4] = assay: Cytotoxicity against human NCI-ADR-RES cells assessed as cell viability at 4 uM incubated for 72 hrs by MTT assay; assay type: functional; details: read-out: Activity
[5] = Cytotoxicity against human A2780cis cells assessed as cell viability at 8 uM incubated for 72 hrs by MTT assay; assay type: functional; details: read-out: Activity
NCI/ADR-RES [6] = assay: Cytotoxicity against human NCI-ADR-RES cells assessed as cell viability at 8 uM incubated for 72 hrs by MTT assay; assay type: functional; details: read-out: Activity
OVCAR-8 [7] = assay: Cytotoxicity against human OVCAR8 cells assessed as cell viability level at 8 uM incubated for 72 hrs by MTT assay; assay type: functional
OVCAR-8 [8] = assay: Cytotoxicity against human OVCAR8 cells assessed as cell viability level at 4 uM incubated for 72 hrs by MTT assay; assay type: functional
[9] = Cytotoxicity against human A2780/DX cells assessed as cell viability at 4 uM incubated for 72 hrs by MTT assay; assay type: functional; details: read-out: Activity
2008 [10] = assay: Cytotoxicity against human OV2008 cells assessed as reduction in cell viability incubated for 48 hrs by MTT assay; assay type: functional, cell-based; details: Homo sapiens, 2008, 48 h
[11] = Growth inhibition of human ovarian epithelial cancer cells at 0.5 uM in presence of 20 nM PTX; assay type: functional
[12] = Growth inhibition of human ovarian cancer stem cells at 0.5 uM in presence of 20 nM PTX; assay type: functional

CC[C@@H](C(=O)[C@@H](C)[C@@H](O)[C@H](C)[C@@H]1O[C@@H]([C@@H](CC)C(=O)O)CC[C@@H]1C)[C@H]1O[C@]2(C=C[C@@H](O)[C@]3(CC[C@@](C)([C@H]4CC[C@](O)(CC)[C@H](C)O4)O3)O2)[C@H](C)C[C@@H]1C [SALINOMYCIN]
pIC50 2008 [1]: 5.13 | Activity (C13): 84.2 mm3 | viability at 8 µM [2]: 43% | pIC50 2008 [3]: 5.49 | viability at 4 µM (NCI/ADR-RES [4]): 50% | viability at 8 µM [5]: 55% | viability at 8 µM (NCI/ADR-RES [6]): 37% | Activity (OVCAR-8 [7]): 45% | Activity (OVCAR-8 [8]): 53% | viability at 4 µM [9]: 50% | pIC50 2008 [10]: 5.32 | growth inhibition (GI) [11]: 58% | growth inhibition (GI) [12]: 59%
